# Measurements taken from patent publication US11655246B2, “Aminothiazole compounds as inhibitors of CTPS1” (STEP PHARMA S.A.S., priority 2017, dated 2023).
# pIC50: −log10 of the molar value. Values joined by “and” are separate entries in the source; they are usually repeats but may differ in a detail not shown here. Equal values may be shown once.
# Target: T1, human CTPS1 (Homo sapiens, UniProt P17812)
# T1 construct: purchased Proteros biostructures GmbH
# T1 sequence (P17812 1-591): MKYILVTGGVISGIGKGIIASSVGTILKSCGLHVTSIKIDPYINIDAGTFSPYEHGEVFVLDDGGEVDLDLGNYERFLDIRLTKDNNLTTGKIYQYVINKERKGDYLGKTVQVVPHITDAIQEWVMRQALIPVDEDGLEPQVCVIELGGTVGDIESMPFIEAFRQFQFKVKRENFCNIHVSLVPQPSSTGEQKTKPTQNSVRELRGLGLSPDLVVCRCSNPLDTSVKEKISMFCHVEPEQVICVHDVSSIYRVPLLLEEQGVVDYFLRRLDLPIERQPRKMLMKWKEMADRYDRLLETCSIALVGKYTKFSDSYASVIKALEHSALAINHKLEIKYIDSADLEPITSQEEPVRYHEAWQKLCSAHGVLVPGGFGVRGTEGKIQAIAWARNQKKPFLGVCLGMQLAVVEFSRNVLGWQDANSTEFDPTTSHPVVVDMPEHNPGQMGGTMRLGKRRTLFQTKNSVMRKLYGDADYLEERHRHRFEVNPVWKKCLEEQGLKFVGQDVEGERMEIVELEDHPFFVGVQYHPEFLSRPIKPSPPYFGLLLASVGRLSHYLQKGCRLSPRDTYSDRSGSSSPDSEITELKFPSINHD
# Test: Human CTPS1 enzyme inhibition (ADP-Glo Max assay)
# Type: biochemical
# Conditions: Table 17, 25° C., read-out: CTPS1 (Human CTPS1 Enzyme Inhibition data grouped by potency range)
# Protocol: The enzyme inhibitory activities of compounds invented against the target of interest were determined using the ADP-Glo™ Max assay (Promega, UK). Assays for human CTPS1 were performed in 1× assay buffer containing 50 mM Tris, 10 mM MgCl2, 0.01% Tween-20, pH to 8.0 accordingly. Finally, immediately before use, L-cysteine was added to the 1× assay buffer to a final concentration of 2 mM. All reagents are from Sigma-Aldrich unless specified otherwise.
# 3× human CTPS1 protein was prepared in 1× assay buffer to the final working protein concentration required for the reaction. A 2 uL volume per well of 3× human CTPS1 protein was mixed with 2 uL per well of 3× test compound (compound prepared in 1× assay buffer to an appropriate final 3× compound concentration respective to the concentration response curve designed for the compounds under test) for 10 minutes at 25° C. […] ADP-Glo™ Max reagent was added for 60 minutes (6 uL per well) and subsequently ADP-Glo™ Max development reagent was added for 60 minutes (12 uL per well) prior to signal detection in a microplate reader (EnVision® Multilabel Reader, Perkin Elmer). Following each reagent addition over the course of the assay, assay plates were pulse centrifuged for 30 seconds at 500 rpm.
# In all cases, the enzyme converts ATP to ADP and the ADP-Glo™ Max reagent subsequently depletes any remaining endogenous ATP in the reaction system. The ADP-Glo™ Max detection reagent converts the ADP that has been enzymatically produced back into ATP and using ATP as a substrate together with luciferin for the enzyme luciferase, light is generated which produces a detectable luminescence. […] The percentage inhibition produced by each concentration of compound was calculated using the equation shown below: […]
row,SMILES,pIC50
1,"O=C(Cc1csc(NS(=O)(=O)C2CC2)n1)Nc1ccc(-c2cccnc2)cc1Cl [T16, N-(2-chloro-4-(pyridin-3-yl)phenyl)-2-(2-(cyclopropanesulfonamido)thiazol-4-yl)acetamide]",6.00 to 7.00
2,"Cc1sc(NS(=O)(=O)C2CC2)nc1C(C)(C)C(=O)Nc1ccc(-c2cncc(C(F)(F)F)n2)cc1 [T17, 2-(2-(cyclopropanesulfonamido)-5-methylthiazol-4-yl)-2-methyl-N-(4-(6-(trifluoromethyl)pyrazin-2-yl)phenyl)propanamide]",6.00 to 7.00
3,"CC(C)(C(=O)Nc1ccc(-c2cncnc2)cc1)c1csc(NS(=O)(=O)C2CC2)n1 [T18, 2-(2-(cyclopropanesulfonamido)thiazol-4-yl)-2-methyl-N-(4-(pyrimidin-5-yl)phenyl)propanamide]",> 7.00
4,"CN(C)C(=O)c1cncc(-c2ccc(NC(=O)C(C)(C)c3csc(NS(=O)(=O)C4CC4)n3)cc2)n1 [T19, 6-(4-(2-(2-(cyclopropanesulfonamido)thiazol-4-yl)-2-methylpropanamido)phenyl)-N,N-dimethylpyrazine-2-carboxamide]",6.00 to 7.00
5,"CC(C)(C(=O)Nc1ncc(-c2cncc(C#N)c2)cn1)c1csc(NS(=O)(=O)C2CC2)n1 [T20, N-(5-(5-cyanopyridin-3-yl)pyrimidin-2-yl)-2-(2-(cyclopropanesulfonamido)thiazol-4-yl)-2-methylpropanamide]",6.00 to 7.00
6,"O=C(Cc1nc(NS(=O)(=O)C2CC2)sc1Cl)Nc1ccc(-c2ccccc2)cc1 [T21, N-([1,1′-biphenyl]-4-yl)-2-(5-chloro-2-(cyclopropanesulfonamido)thiazol-4-yl)acetamide]",5.00 to 6.00
7,"C#Cc1cncc(-c2ccc(NC(=O)C(CC)c3csc(NS(=O)(=O)C4CC4)n3)cc2)n1 (stereo not drawn) [T22, 2-(2-(cyclopropanesulfonamido)thiazol-4-yl)-N-(4-(6-ethynylpyrazin-2-yl)phenyl)butanamide]",> 7.00
8,CC(C(=O)Nc1ccc(-c2cccnc2)nc1)c1csc(NS(=O)(=O)C2CC2)n1 (stereo not drawn) [T27],6.00 to 7.00
9,CCC(C(=O)Nc1ccc(-c2cncc(OC)n2)cc1)c1csc(NS(=O)(=O)C2CC2)n1 (stereo not drawn) [T33],> 7.00
10,CC(C)(C(=O)Nc1ccc(-c2cnccn2)c(F)c1)c1csc(NS(=O)(=O)C2CC2)n1 [T39],6.00 to 7.00
11,CC(C)(C(=O)Nc1ccc(-c2cccnc2)cc1Cl)c1csc(NS(=O)(=O)C2CC2)n1 [T41],6.00 to 7.00
12,COc1cncc(-c2ccc(NC(=O)C(OC)c3csc(NS(=O)(=O)C4CC4)n3)cc2)n1 (stereo not drawn) [T57],> 7.00
13,CC(C)OC(C(=O)Nc1ccc(-c2cncc(Cl)c2)cc1)c1csc(NS(=O)(=O)C2CC2)n1 (stereo not drawn) [T58],> 7.00
14,COCCC(C(=O)Nc1ccc(-c2cncc(C(F)(F)F)n2)cn1)c1csc(NS(=O)(=O)C2CC2)n1 (stereo not drawn) [T59],> 7.00
15,CCC(C(=O)Nc1ccc(-c2ccnnc2)cc1)c1csc(NS(=O)(=O)C2CC2)n1 (stereo not drawn) [T69],5.00 to 6.00
16,CCC(C(=O)Nc1ccc(-c2cnccn2)cc1)c1csc(NS(=O)(=O)C2CC2)n1 (stereo not drawn) [T70],6.00 to 7.00
17,COCCC(C(=O)Nc1ccc(-c2cncc(Cl)c2)cc1)c1csc(NS(=O)(=O)C2CC2)n1 (stereo not drawn) [T71],> 7.00
18,CCC(C(=O)Nc1ccc(-c2cncc(C(F)(F)F)n2)cc1)c1csc(NS(=O)(=O)C2CC2)n1 (stereo not drawn) [T73],> 7.00
19,CC(C)C(C(=O)Nc1ccc(-c2cnccn2)cc1)c1csc(NS(=O)(=O)C2CC2)n1 (stereo not drawn) [T74],6.00 to 7.00

row,SMILES,pIC50
1,CCCOc1cncc(-c2ccc(NC(=O)C(CC)c3csc(NS(=O)(=O)C4CC4)n3)cc2)n1 (stereo not drawn) [T75],> 7.00
2,CCC(C(=O)Nc1ccc(-c2cncc(OC(C)C)n2)cc1)c1csc(NS(=O)(=O)C2CC2)n1 (stereo not drawn) [T76],> 7.00
3,CCC(C(=O)Nc1ccc(-c2cncc(OC3CC3)n2)cc1)c1csc(NS(=O)(=O)C2CC2)n1 (stereo not drawn) [T77],> 7.00
4,"CCC(C(=O)Nc1ccc(-c2cncc(Cl)n2)cc1)c1csc(NS(=O)(=O)C2CC2)n1 (stereo not drawn) [T78, N-(4-(6-chloropyrazin-2-yl)phenyl)-2-(2-(cyclopropanesulfonamido)thiazol-4-yl)butanamide]",> 7.00
5,CCC(C(=O)Nc1ccc(-c2cncc(C#N)n2)cc1)c1csc(NS(=O)(=O)C2CC2)n1 (stereo not drawn) [T79],6.00 to 7.00
6,O=C(Nc1ccc(-c2ccccc2)cc1)C1CCCc2sc(NS(=O)(=O)C3CC3)nc21 (stereo not drawn) [T83],5.00 to 6.00
7,O=C(Nc1ccc(-c2cccnc2)cc1)C1CCCc2sc(NS(=O)(=O)C3CC3)nc21 (stereo not drawn) [T84],6.00 to 7.00
8,CCC(C(=O)Nc1ccc(-c2ccccc2)cc1)c1csc(NS(=O)(=O)C2CC2)n1 (stereo not drawn) [T85],6.00 to 7.00
9,CC(C)C(C(=O)Nc1ccc(-c2ccccc2)cc1)c1csc(NS(=O)(=O)C2CC2)n1 (stereo not drawn) [T86],5.00 to 6.00
10,CC(C)(C(=O)Nc1ccc(-c2cccc(Cl)c2)cc1)c1csc(NS(=O)(=O)C2CC2)n1 [T87],6.00 to 7.00
11,CC(C)(C(=O)Nc1ccc(-c2cccc(C#N)c2)cc1)c1csc(NS(=O)(=O)C2CC2)n1 [T88],6.00 to 7.00
12,O=C(Nc1ccc(-c2cccnc2)cc1)C(F)(F)c1csc(NS(=O)(=O)C2CC2)n1 [T89],> 7.00
13,CCC(C(=O)Nc1ccc(-c2cncc(F)c2)cc1)c1csc(NS(=O)(=O)C2CC2)n1 (stereo not drawn) [T90],> 7.00
14,CCOc1cncc(-c2ccc(NC(=O)C(C)c3csc(NS(=O)(=O)C4CC4)n3)cc2)c1 (stereo not drawn) [T94],> 7.00
15,CC(C(=O)Nc1ccc(-c2cncc(Cl)c2)cc1)c1csc(NS(=O)(=O)C2CC2)n1 (stereo not drawn) [T95],> 7.00
16,CCOc1cncc(-c2ccc(NC(=O)C(CC)c3csc(NS(=O)(=O)C4CC4)n3)cc2)c1 (stereo not drawn) [T96],> 7.00
17,Cc1ncccc1-c1ccc(NC(=O)Cc2csc(NS(=O)(=O)C3CC3)n2)cc1 [T100],6.00 to 7.00
18,CC(C(=O)Nc1ccc(-c2cccnc2)cc1)c1csc(NS(=O)(=O)C2CC2)n1 (stereo not drawn) [T102],> 7.00
19,CCC(CC)(C(=O)Nc1ccc(-c2cncc(Cl)c2)cc1)c1csc(NS(=O)(=O)C2CC2)n1 [T120],> 7.00

row,SMILES,pIC50
1,CC(C)(C(=O)Nc1ccc(-c2cccnc2)c(Cl)c1)c1csc(NS(=O)(=O)C2CC2)n1 [T153],6.00 to 7.00
2,CCC(CC)(C(=O)Nc1ccc(-c2cncc(Cl)n2)cc1)c1csc(NS(=O)(=O)C2CC2)n1 [T160],> 7.00
3,O=C(Nc1ccc(-c2cncc(C(F)(F)F)n2)cn1)C1CCc2sc(NS(=O)(=O)C3CC3)nc21 (stereo not drawn) [T169],6.00 to 7.00
4,COCCC(C(=O)Nc1ccc(-c2cnccn2)cn1)c1csc(NS(=O)(=O)C2CC2)n1 (stereo not drawn) [T170],6.00 to 7.00
5,COCCC(C(=O)Nc1ccc(-c2cncc(OC)c2)cn1)c1csc(NS(=O)(=O)C2CC2)n1 (stereo not drawn) [T171],> 7.00
6,CC(C)OC(C(=O)Nc1ccc(-c2cncc(C(F)(F)F)n2)cn1)c1csc(NS(=O)(=O)C2CC2)n1 (stereo not drawn) [T172],> 7.00
7,CCCOc1cncc(-c2ccc(NC(=O)C(CC)c3csc(NS(=O)(=O)C4CC4)n3)nc2)n1 (stereo not drawn) [T173],> 7.00
8,CCC(C(=O)Nc1ccc(-c2cncc(OC(C)C)n2)cn1)c1csc(NS(=O)(=O)C2CC2)n1 (stereo not drawn) [T174],> 7.00
9,CCC(C(=O)Nc1ccc(-c2cncc(C(F)(F)F)n2)cn1)c1csc(NS(=O)(=O)C2CC2)n1 (stereo not drawn) [T175],> 7.00
10,CCC(C(=O)Nc1ccc(-c2cncc(OC)n2)cn1)c1csc(NS(=O)(=O)C2CC2)n1 (stereo not drawn) [T176],> 7.00
11,CCOc1cncc(-c2ccc(NC(=O)C(CC)c3csc(NS(=O)(=O)C4CC4)n3)nc2)n1 (stereo not drawn) [T177],> 7.00
12,CCC(C(=O)Nc1ccc(-c2cncc(C#N)n2)cn1)c1csc(NS(=O)(=O)C2CC2)n1 (stereo not drawn) [T178],5.00 to 6.00
13,CCC(C(=O)Nc1ccc(-c2cncc(F)c2)cn1)c1csc(NS(=O)(=O)C2CC2)n1 (stereo not drawn) [T179],> 7.00
14,CCC(C(=O)Nc1ccc(-c2cncc(C#N)c2)cn1)c1csc(NS(=O)(=O)C2CC2)n1 (stereo not drawn) [T180],> 7.00
15,CCC(C(=O)Nc1ccc(-c2ccccc2)cn1)c1csc(NS(=O)(=O)C2CC2)n1 (stereo not drawn) [T181],6.00 to 7.00
16,CCC(C(=O)Nc1ccc(-c2cncc(OCC(F)(F)F)n2)cn1)c1csc(NS(=O)(=O)C2CC2)n1 (stereo not drawn) [T182],> 7.00
17,CCOc1cncc(-c2cnc(NC(=O)C(CC)c3csc(NS(=O)(=O)C4CC4)n3)c(F)c2)n1 (stereo not drawn) [T183],> 7.00
18,CCC(C(=O)Nc1ncc(-c2cncc(C#N)n2)cc1F)c1csc(NS(=O)(=O)C2CC2)n1 (stereo not drawn) [T184],5.00 to 6.00
19,CCC(C(=O)Nc1ccc(-c2cncc(OCC(F)(F)F)c2)cn1)c1csc(NS(=O)(=O)C2CC2)n1 (stereo not drawn) [T185],> 7.00 and 6.00 to 7.00
